The structures appear in SMILES notation. Several values for one entry are separate records, joined by “and”; a condition that tells them apart may be missing. Identical values can stand only once. Toxic doses and inconclusive results are not listed.

This experiment relates to L1210 leukemia ip in BDF1 mice, survival T/C. Description: NCI In Vivo Anticancer Drug Screen. Data for tumor model L1210 Leukemia (intraperitoneal) in B6D2F1 (BDF1) mice. The note with it: endpoint: mean survival time, higher = longer survival. In a few lines:
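Transplantable tumor model; survival measured in treated vs vehicle control mice. Value = treated/control.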

[1] abbreviates: dose: 100.0 mg/kg/injection, schedule: Q04DX003 (ip), vehicle: Klucel (hydroxypropylcellulose) (HPC).
Setting [2] is: dose: 200.0 mg/kg/injection, schedule: Q04DX003 (ip), vehicle: Klucel (hydroxypropylcellulose) (HPC).
[3] abbreviates: dose: 400.0 mg/kg/injection, schedule: Q04DX003 (ip), vehicle: Klucel (hydroxypropylcellulose) (HPC).
[4] abbreviates: dose: 100.0 mg/kg/injection, schedule: Q04DX003 (ip), vehicle: saline.
[5] abbreviates: dose: 200.0 mg/kg/injection, schedule: Q04DX003 (ip), vehicle: saline.
[6] abbreviates: dose: 400.0 mg/kg/injection, schedule: Q04DX003 (ip), vehicle: saline.
Where [7] appears, read: dose: 100.0 mg/kg/injection, schedule: Q01DX001 (ip), vehicle: saline with Tween-80.
[8] abbreviates: dose: 100.0 mg/kg/injection, schedule: Q01DX009 (ip), vehicle: Klucel (hydroxypropylcellulose) (HPC).
Setting [9] is: dose: 200.0 mg/kg/injection, schedule: Q01DX009 (ip), vehicle: Klucel (hydroxypropylcellulose) (HPC).
The mark [10] stands for this setting: dose: 400.0 mg/kg/injection, schedule: Q01DX009 (ip), vehicle: Klucel (hydroxypropylcellulose) (HPC).

Take `CC1(CCC(=O)O)SCSCS1`: the T/C was 97 % of control under setting [1], 90 % of control under setting [2] and 92 % of control under setting [3].
For the compound `O=c1[nH]c(=O)c2nc3cc(Br)cnc3nc2[nH]1`, the T/C is, setting by setting: under setting [4], 95 % of control; under setting [5], 102 % of control; under setting [6], 103 % of control.
With `O=C1CCCC2CCCC12` (stereo not given), the T/C runs as follows: (dose: 100.0 mg/kg/injection, schedule: Q01DX001 (ip), vehicle: carboxymethylcellulose (CMC)) 93 % of control; (dose: 200.0 mg/kg/injection, schedule: Q01DX001 (ip), vehicle: carboxymethylcellulose (CMC)) 95 % of control; (dose: 400.0 mg/kg/injection, schedule: Q01DX001 (ip), vehicle: carboxymethylcellulose (CMC)) 93 % of control.
On to `CC(=O)OCCn1c([N+](=O)[O-])cnc1/C=[N+](/[O-])CCO`, for which the T/C is, setting by setting: (dose: 100.0 mg/kg/injection, schedule: Q04DX002 (ip), vehicle: saline) 111 % of control; (dose: 200.0 mg/kg/injection, schedule: Q04DX002 (ip), vehicle: saline) 100 % of control; (dose: 400.0 mg/kg/injection, schedule: Q04DX002 (ip), vehicle: saline) 100 % of control.
`CN(C)C1C(=O)C(C(N)=O)=C(O)C2(O)C(=O)C3=C(O)c4c(O)cccc4C(C)(O)C3C(O)C12` (stereo not given): the T/C is, setting by setting: (dose: 19.5 mg/kg/injection, schedule: Q01DX Z (ip), vehicle: carboxymethylcellulose (CMC)) 94 % of control; (dose: 39.0 mg/kg/injection, schedule: Q01DX Z (ip), vehicle: carboxymethylcellulose (CMC)) 91 % of control; (dose: 50.0 mg/kg/injection, schedule: Q01DX001 (ip), vehicle: saline) 93 % of control; (dose: 50.0 mg/kg/injection, schedule: Q01DX Z (ip), vehicle: water) 117 % of control; (dose: 78.0 mg/kg/injection, schedule: Q01DX Z (ip), vehicle: carboxymethylcellulose (CMC)) 89 % of control; (dose: 100.0 mg/kg/injection, schedule: Q01DX001 (ip), vehicle: saline) 90 % of control. Moreover, the T/C was 119 % of control (dose: 100.0 mg/kg/injection, schedule: Q01DX Z (ip), vehicle: water); 98 % of control (dose: 156.0 mg/kg/injection, schedule: Q01DX Z (ip), vehicle: carboxymethylcellulose (CMC)); 95 % of control (dose: 200.0 mg/kg/injection, schedule: Q01DX001 (ip), vehicle: saline); 101 % of control (dose: 400.0 mg/kg/injection, schedule: Q01DX001 (ip), vehicle: saline).
`Cc1ccc(Cl)cc1NC(=O)N1CCN(c2ccccc2)CC1`: the T/C is 95 % of control under setting [7]; 98 % of control and 103 % of control (dose: 100.0 mg/kg/injection, schedule: Q01DX009 (ip), vehicle: saline with Tween-80); 120 % of control (dose: 100.0 mg/kg/injection, schedule: Q04DX002 (ip), vehicle: saline with Tween-80); 101 % of control under setting [4]; 87 % of control (dose: 200.0 mg/kg/injection, schedule: Q01DX001 (ip), vehicle: saline with Tween-80); 100 % of control and 102 % of control (dose: 200.0 mg/kg/injection, schedule: Q01DX009 (ip), vehicle: saline with Tween-80). Further, the T/C (dose: 200.0 mg/kg/injection, schedule: Q04DX002 (ip), vehicle: saline with Tween-80) was 98 % of control and 86 % of control; the T/C under setting [5] was 90 % of control; the T/C (dose: 400.0 mg/kg/injection, schedule: Q01DX001 (ip), vehicle: saline with Tween-80) is 100 % of control; the T/C (dose: 400.0 mg/kg/injection, schedule: Q01DX009 (ip), vehicle: saline with Tween-80) was 92 % of control; the T/C (dose: 400.0 mg/kg/injection, schedule: Q04DX002 (ip), vehicle: saline with Tween-80) was 95 % of control and 89 % of control; the T/C under setting [6] is 95 % of control.
In the case of `Cc1c(CCO)c(=O)n2n1CCCC2`, the T/C is, setting by setting: (dose: 75.0 mg/kg/injection, schedule: Q01DX001 (ip), vehicle: other) 108 % of control; (dose: 150.0 mg/kg/injection, schedule: Q01DX001 (ip), vehicle: other) 100 % of control.
With `OCCCNc1nc2ccc(Br)cc2c2ccccc12`, the T/C under setting [8] was 100 % of control; the T/C under setting [1] is 108 % of control; the T/C under setting [9] is 89 % of control; the T/C under setting [2] is 102 % of control; the T/C under setting [10] is 95 % of control; the T/C under setting [3] is 102 % of control.
Turning to `CCCCNC(=O)Nc1cc(C)cc(C)n1`, the T/C is 100 % of control under setting [8]; 94 % of control under setting [1]; 104 % of control under setting [9]; 102 % of control under setting [2]; 91 % of control under setting [10]; 98 % of control under setting [3].
Consider `CCCC(=O)OCC1OC(n2cnc3c(=S)nc(N)[nH]c32)C(OC(=O)CCC)C1OC(=O)CCC` (stereo not given), for which the T/C (dose: 1.0 mg/kg/injection, schedule: Q01DX Z (ip), vehicle: carboxymethylcellulose (CMC)) was 109 % of control; the T/C (dose: 1.5 mg/kg/injection, schedule: Q01DX Z (ip), vehicle: carboxymethylcellulose (CMC)) is 117 % of control; the T/C (dose: 2.0 mg/kg/injection, schedule: Q01DX Z (ip), vehicle: carboxymethylcellulose (CMC)) was 112 % of control; the T/C (dose: 2.3 mg/kg/injection, schedule: Q01DX Z (ip), vehicle: carboxymethylcellulose (CMC)) is 124 % of control; the T/C (dose: 3.0 mg/kg/injection, schedule: Q01DX Z (ip), vehicle: carboxymethylcellulose (CMC)) was 117 % of control; the T/C (dose: 5.0 mg/kg/injection, schedule: Q01DX Z (ip), vehicle: carboxymethylcellulose (CMC)) was 154 % of control. For the same compound, the T/C was 106 % of control (dose: 9.7 mg/kg/injection, schedule: Q01DX Z (oral), vehicle: carboxymethylcellulose (CMC)); 157 % of control and 159 % of control (dose: 17.0 mg/kg/injection, schedule: Q01DX Z (ip), vehicle: carboxymethylcellulose (CMC)); 152 % of control (dose: 25.0 mg/kg/injection, schedule: Q01DX Z (ip), vehicle: carboxymethylcellulose (CMC)); 115 % of control (dose: 27.0 mg/kg/injection, schedule: Q01DX Z (oral), vehicle: carboxymethylcellulose (CMC)); 112 % of control and 118 % of control (dose: 37.0 mg/kg/injection, schedule: Q01DX Z (ip), vehicle: carboxymethylcellulose (CMC)); 119 % of control (dose: 125.0 mg/kg/injection, schedule: Q01DX Z (oral), vehicle: carboxymethylcellulose (CMC)).
With `O=C(Nc1cccc(F)c1)Nc1cccc(C(F)(F)F)c1`, the T/C is, setting by setting: under setting [8], 96 % of control; under setting [9], 95 % of control; under setting [10], 105 % of control.
With `CC(CN1CCN(CCOCCO)CC1)CN1c2ccccc2Sc2ccccc21` (stereo not given), the T/C is 103 % of control (dose: 3.12 mg/kg/injection, schedule: Q01DX009 (ip), vehicle: saline); 97 % of control (dose: 6.25 mg/kg/injection, schedule: Q01DX009 (ip), vehicle: saline); 108 % of control (dose: 12.5 mg/kg/injection, schedule: Q01DX009 (ip), vehicle: saline); 113 % of control (dose: 25.0 mg/kg/injection, schedule: Q01DX009 (ip), vehicle: saline); 96 % of control (dose: 25.0 mg/kg/injection, schedule: Q04DX003 (ip), vehicle: saline); 102 % of control (dose: 50.0 mg/kg/injection, schedule: Q04DX003 (ip), vehicle: saline).
On to `Cc1cc(=O)c2c(=O)[nH][nH]c2[nH]1`, for which the T/C was 95 % of control under setting [4], 105 % of control under setting [5] and 94 % of control under setting [6].
As to `N#CC(c1ccc(Cl)cc1)C(C/C(=N/Nc1ccc([N+](=O)[O-])cc1[N+](=O)[O-])c1ccccc1)c1ccccc1` (stereo not given), the T/C reads like this: (dose: 25.0 mg/kg/injection, schedule: Q01DX001 (ip), vehicle: saline with Tween-80) 91 % of control; (dose: 50.0 mg/kg/injection, schedule: Q01DX001 (ip), vehicle: saline with Tween-80) 93 % of control; under setting [7], 95 % of control.
For `Cc1cccc2ccccc12`, the T/C (dose: 100.0 mg/kg/injection, schedule: Q04DX002 (ip), vehicle: Klucel (hydroxypropylcellulose) (HPC)) is 107 % of control; the T/C (dose: 200.0 mg/kg/injection, schedule: Q04DX002 (ip), vehicle: Klucel (hydroxypropylcellulose) (HPC)) is 107 % of control; the T/C (dose: 400.0 mg/kg/injection, schedule: Q04DX002 (ip), vehicle: Klucel (hydroxypropylcellulose) (HPC)) is 107 % of control.
With `CN(C)CCCN(CCCN(C)C)Cc1ccccc1`, the T/C is, setting by setting: (dose: 75.0 mg/kg/injection, schedule: Q01DX001 (ip), vehicle: saline) 104 % of control; (dose: 150.0 mg/kg/injection, schedule: Q01DX001 (ip), vehicle: saline) 97 % of control.

The values above are taken from PubChem BioAssay AID248 (DTP/NCI, 2004).
